# Reference: US10844049B2, “GLP-1R agonists and uses thereof” (QILU REGOR THERAPEUTICS INC., priority 2018, dated 2020)
# Molecular target: GLP1R (Homo sapiens, UniProt P43220)
# Assay: GLP1R cAMP HTRF assay, HEK293/GLP-1R/CRE/Luc (HEK293T cells)
# Format: cell-based
# Details: read-out: EC50
# In short: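 cAMP accumulation via HTRF after 30 min, 37 °C exposure of 1000 receptor-expressing cells/well to compound (0.5% DMSO final) in IBMX (500 μM)/0.1% BSA DPBS.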
# Chain of GLP1R (P43220 24-463): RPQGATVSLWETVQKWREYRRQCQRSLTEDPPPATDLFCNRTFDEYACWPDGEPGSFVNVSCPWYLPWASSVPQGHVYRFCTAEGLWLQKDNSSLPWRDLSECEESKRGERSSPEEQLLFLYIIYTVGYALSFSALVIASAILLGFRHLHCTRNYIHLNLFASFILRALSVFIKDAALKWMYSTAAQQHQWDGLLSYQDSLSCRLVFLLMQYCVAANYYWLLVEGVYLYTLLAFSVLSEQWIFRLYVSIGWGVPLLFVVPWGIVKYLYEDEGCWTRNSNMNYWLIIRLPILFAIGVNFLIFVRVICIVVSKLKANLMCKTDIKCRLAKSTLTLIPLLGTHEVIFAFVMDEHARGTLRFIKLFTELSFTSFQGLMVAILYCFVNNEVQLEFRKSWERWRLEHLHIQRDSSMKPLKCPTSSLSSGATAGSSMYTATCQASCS
row,EC50,SMILES
1,≤ 150 nM,"O=C(O)c1ccc2nc(CC3CCN(c4cccc(OCc5ccc(Cl)cn5)n4)CC3)n(C[C@@H]3CCO3)c2n1 [Compound 230, (S)-2-((l-(6-((5-chloropyridin-2-yl)methoxy)pyridin-2-yl)piperidin-4-yl)methyl)-3-(oxetan-2-ylmethyl)-3H-imidazo[4,5-b]pyridine-5-carboxylic acid]"
2,≤ 150 nM,"N#Cc1ccc(COc2cc(C3=CCN(Cc4nc5ccc(C(=O)O)cc5n4C[C@@H]4CCO4)CC3)cc(F)c2F)c(F)c1 [Compound 205, (S)-2-((4-(3-(4-cyano-2-fluorobenzyloxy)-4,5-difluorophenyl)-5,6-dihydropyridin-1(2H)-yl)methyl)-1-(oxetan-2-ylmethyl)-1H-benzo[d]imidazole-6-carboxylic acid]"
3,≤ 150 nM,"Cc1ncccc1COc1cccc(C2=CCN(Cc3nc4ccc(C(=O)O)cc4n3C[C@@H]3CCO3)CC2)n1 [Compound 161, (S)-2-((6-((2-methylpyridin-3-yl)methoxy)-3′,6′-dihydro-[2,4′-bipyridin]-1′(2′ H)-yl)methyl)-1-(oxetan-2-ylmethyl)-1H-benzo[d]imidazole-6-carboxylic acid]"
4,≤ 15 nM,"O=C(O)c1ccc2nc(CN3CC=C(c4nc(OCc5ccc(F)cc5F)c(F)cc4F)CC3)n(C[C@@H]3CCO3)c2c1 [Compound 216, (S)-2-((4-(6-(2,4-difluorobenzyloxy)-3,5-difluoropyridin-2-yl)-5,6-dihydropyridin-1(2H)-yl)methyl)-1-(oxetan-2-ylmethyl)-1H-benzo[d]imidazole-6-carboxylic acid]"

# The next lines start with the molecule.
row,SMILES,EC50
1,"O=C(O)c1ccc2nc(CN3CC=C(c4cccc(OCc5ccc(F)cc5F)n4)CC3)n(C[C@@H]3CCO3)c2c1 [Compound 141, (S)-2-((6-((2H-difluorobenzyl)oxy)-5′,6′-dihydro-[2,4′-bipyridin]-1′(2′H)-yl)methyl)-1-(oxetan-2-ylmethyl)-1H-benzo[d]imidazole-6-carboxylic add]",≤ 15 nM
2,"Cn1c(CN2CCN(c3cccc(OCc4ccc(Cl)cc4F)n3)CC2)cc2ccc(C(=O)O)cc21 [Compound 50, 2-((4-(6-(4-chloro-2-fluorobenzyloxy)pyridin-2-yl)piperazin-1-yl)methyl)-1-methyl-1 h-indole-6-carboxylic add]",> 1000 nM
3,"O=C(O)c1ccc2nc(CN3CC=C(c4cccc(OCc5ccccc5C(F)(F)F)n4)CC3)n(C[C@@H]3CCO3)c2c1 [Compound 135, (S)-1-(oxetan-2-ylmethyl)-2-((6-((2-(trifluoromethyl)benzyl)oxy)-3′,6′-dihydro-[2,4′-bipyridin]-1′(2′H)-yl)methyl)-1H-benzo[d]imidazole-6-carboxylic acid]",≤ 150 nM
4,"N#Cc1ccc2nc(CN3CC=C(c4cccc(OCc5ccc(Cl)cc5F)n4)CC3)n(C[C@@H]3CCO3)c2c1 [Compound 71, (S)-2-((4-(6-(4-chloro-2-fluorobenzyloxy)pyridin-2-yl)-5,6-dihydropyridin-1(2H)-yl)methyl)-1-(oxetan-2-ylmethyl)-1H-benzo[d]imidazole-6-carbonitrile]",> 1000 nM
5,"O=C(O)c1ccc2nc(CN3CC=C(c4cccc(OCc5cccc(F)c5)n4)CC3)n(C[C@@H]3CCO3)c2c1 [Compound 156, (S)-2-((6-((3-fluorobenzyl)oxy)-3′,6′-dihydro-[2,4′-bipyridin]-1′(2′H)-yl)methyl)-1-(oxetan-2-ylmethyl)-1H-benzo[d]imidazole-6-carboxylic add]",≤ 150 nM
6,"O=c1[nH]c(-c2ccc3nc(CN4CC=C(c5cccc(OCc6ccc(Cl)cc6F)n5)CC4)n(C[C@@H]4CCO4)c3c2)no1 [Compound 62, (S)-3-(2-((4-(6-(4-chloro-2-fluorobenzyloxy)pyridin-2-yl)-5,6-dihydropyridin-1(2H)-yl)methyl)-1-(oxetan-2-ylmethyl)-1H-benzo[d]imidazol-6-yl)-1,2,4-oxadiazol-5(4H)-one]",≤ 150 nM
